# Measurements: US8796292B2, “Selective antibacterials for clostridium difficile infections” (GLSynthesis Inc., priority 2009, dated 2014)
# Where two headings read alike, the source gives them in different places.
# Columns and labels:
# Experiment in all cases: agar dilution MIC assay of anaerobic bacteria
# [1] = test system: Ba. fragilis; assay type: cell-based; conditions: Bacteroides fragilis
# Method in brief: (§1)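 Growth inhibition is scored as absence of colony formation on agar containing serial drug dilutions, following CLSI anaerobe guidance. Plates receive 500-1000 CFU and incubate anaerobically at 35° C. for 48 hours.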
# [2] = test system: L. acidophilus; assay type: cell-based; conditions: Lactobacillus acidophilus
# Method in brief: as §1
# [3] = test system: Bi. brevi; assay type: cell-based, Bifidobacterium brevi
# Method in brief: as §1
# [4] = test system: C. difficile; assay type: cell-based, Clostridium difficile; conditions: Clostridioides difficile, read-out: MIC
# Method in brief: as §1
# [5] = test system: L. casei; assay type: cell-based, Lactobacillus casei; conditions: Lacticaseibacillus casei
# Method in brief: as §1
# [6] = test system: Bi. longum; assay type: cell-based, Bifidobacterium longum
# Method in brief: as §1
# [7] = test system: E. lentum; assay type: cell-based, Eubacterium lentum
# Method in brief: as §1
structure (smiles),measurement,setting,value
"Cc1ncc([N+](=O)[O-])n1CCO [metronidazole, reference compound]",MIC,"[1]; B. fragilis, Micromyx Number 0123 (ATCC strain), Table 2",0.5 µg/mL
same,MIC,"[1]; B. fragilis, Strain no. 0123 (ATCC strain), Gram-negative (control), Table 3",0.5 µg/mL
same,MIC,"[1]; Ba. fragilis, Micromyx Number 0123 (ATCC strain), Gram negative, Table 1",1 µg/mL
same,MIC,"[2]; Micromyx Number 0681, Table 1",> 16 µg/mL
same,MIC,"[2]; Strain no. 0681, Table 3",> 32 µg/mL
same,MIC,"[3]; Bifidobacterium breve, Bi. Breve, Strain no. 3967 (ATCC strain), Table 3",4 µg/mL
same,MIC,"[3]; Bifidobacterium, Bi. brevi, Micromyx Number 3967, Table 1",> 16 µg/mL
same,MIC,"[4]; C. diff. Strain no. 18285, Table 4",2 µg/mL
same,MIC,"[4]; C. diff. Strain no. 19265, Table 4",0.5 µg/mL
same,MIC,"[4]; C. diff. Strain no. 19273, Table 4",0.25 µg/mL
same,MIC,"[4]; C. diff. Strain no. 19281, Table 4",0.5 µg/mL
same,MIC,"[4]; C. diff. Strain no. 19291, Table 4",0.5 µg/mL
same,MIC,"[4]; C. diff. Strain no. 19369, Table 4",0.5 µg/mL
same,MIC,"[4]; C. diff. Strain no. 19382, Table 4",0.5 µg/mL
same,MIC,"[4]; C. diff. Strain no. 19540, Table 4",4 µg/mL
same,MIC,"[4]; C. diff. Strain no. 19580, Table 4",2 µg/mL
same,MIC,"[4]; C. diff. Strain no. 19680, Table 4",4 µg/mL
same,MIC,"[4]; C. diff. Strain no. 19681, Table 4",1 µg/mL
same,MIC,"[4]; C. diff. Strain no. 19683, Table 4",2 µg/mL
same,MIC,"[4]; C. diff. Strain no. 19687, Table 4",4 µg/mL
same,MIC,"[4]; C. diff. Strain no. 20066, Table 4",4 µg/mL
same,MIC,"[4]; C. diff. Strain no. 20152, Table 4",1 µg/mL
same,MIC,"[4]; C. diff. Strain no. 20307, Table 4",0.5 µg/mL
same,MIC,"[4]; C. diff. Strain no. 20494, Table 4",1 µg/mL
same,MIC,"[4]; C. diff. Strain no. 20680, Table 4",4 µg/mL
same,MIC,"[4]; C. diff. Strain no. 20934, Table 4",1 µg/mL
same,MIC,"[4]; C. diff. Strain no. 21099, Table 4",2 µg/mL
same,MIC,"[4]; C. diff., Micromyx Number 3579, Table 2",0.5 µg/mL
same,MIC,"[4]; C. diff., Micromyx Number 3580, Table 2",0.5 µg/mL
same,MIC,"[4]; C. diff., Micromyx Number 3581, Table 2",0.5 µg/mL
same,MIC,"[4]; C. diff., Micromyx Number 3582 (ATCC strain), Table 2",0.5 µg/mL
same,MIC,"[4]; C. diff., Strain no. 3580, Table 3",1 µg/mL
same,MIC,"[4]; C. diff., Strain no. 3581, Table 3",1 µg/mL
same,MIC,"[4]; C. diff., Strain no. 3582, Table 3",0.5 µg/mL
same,MIC,"[4]; C. diff., Strain no. 3584, Table 3",0.5 µg/mL
same,MIC,"[4]; C. diff., Strain no. 3585, Table 3",1 µg/mL
same,MIC,"[4]; C. diff., Strain no. 3586, Table 3",0.12 µg/mL
same,MIC,"[4]; C. diff., Strain no. 3587, Table 3",1 µg/mL
same,MIC,"[4]; C. diff., Strain no. 3588, Table 3",0.5 µg/mL
same,MIC,"[4]; C. diff., Strain no. 3589, Table 3",2 µg/mL
same,MIC,"[4]; C. diff., Strain no. 4381 (ATCC strain), Table 3",0.5 µg/mL
same,MIC,"[4]; C. difficile, Micromyx Number 1209, Table 1",0.5 µg/mL
same,MIC,"[4]; C. difficile, Micromyx Number 3579, Table 1",0.25 µg/mL
same,MIC,"[4]; C. difficile, Micromyx Number 3580, Table 1",0.5 µg/mL
same,MIC,"[4]; C. difficile, Micromyx Number 3581, Table 1",1 µg/mL
same,MIC,"[4]; C. difficile, Micromyx Number 3582, Table 1",0.25 µg/mL
same,MIC,"[4]; C. difficile, Micromyx Number 3584, Table 1",0.5 µg/mL
same,MIC,"[4]; C. difficile, Micromyx Number 3585, Table 1",0.5 µg/mL
same,MIC,"[4]; C. difficile, Micromyx Number 3586, Table 1",0.5 µg/mL
same,MIC,"[4]; C. difficile, Micromyx Number 3587, Table 1",1 µg/mL
same,MIC,"[4]; C. difficile, Micromyx Number 3588, Table 1",0.5 µg/mL
same,MIC,"[4]; C. difficile, Micromyx Number 3589, Table 1",1 µg/mL
same,MIC,"[4]; C. difficile, Micromyx Number 3590, Table 1",0.5 µg/mL
same,MIC,"[4]; C. difficile, Micromyx Number 3591, Table 1",0.5 µg/mL
same,MIC,"[4]; C. difficile, Micromyx Number 3593, Table 1",0.5 µg/mL
same,MIC,"[4]; C. difficile, Micromyx Number 3594, Table 1",1 µg/mL
same,MIC,"[4]; C. difficile, Micromyx Number 3595, Table 1",1 µg/mL
same,MIC,"[4]; C. difficile, Micromyx Number 4381 (ATCC strain), Table 1",0.5 µg/mL
same,MIC,"[5]; Micromyx Number 1722, Table 1",> 16 µg/mL
same,MIC,"[5]; Strain no. 1722 (ATCC strain), Table 3",> 32 µg/mL
same,MIC,"[6]; Bi. Longum, Strain no. 3968 (ATCC strain), Table 3",4 µg/mL
same,MIC,"[6]; Bifidobacterium longum, Bi. longum, Micromyx Number 3968, Table 1, read-out: MIC",4 µg/mL
same,MIC,"[7]; Eggerthella lenta, E. lentum, Micromyx Number 1274, Table 1, read-out: MIC",0.5 µg/mL
same,MIC,"[7]; Eu. Lentum, Strain no. 1274 (ATCC strain), Table 3",0.5 µg/mL
